Source: US12721823B2, “Methods and compositions for treatment of low circulating testosterone conditions” (University of Florida Research Foundation, Inc., priority 2021, dated 2026)

Assays:
Format in all cases: in vivo, rat
[1] = system: Kcc2 gene promoter; assay: Bisulfite sequencing of CpG sites in the Kcc2 gene promoter; settings: for DNA methylation in the Kcc2 gene promoter: vs con-M*con-F; for methylation of CpG sites in the Kcc2 gene promoter: vs control
Experimental: Genomic DNA was extracted from the sperm pellet and ovaries of adult G1 rats and from hippocampal and hypothalamic tissues of G2 rats using the DNeasy Blood and Tissue kit (Qiagen, Hilden, Germany). The sodium bisulfite conversion was performed with EZ DNA Methylation kits (Zymo Research, Irvine, CA) following the manufacturer's instructions. The primers (Kcc2: forward: […] (SEQ ID NO: 1); reverse: […] (SEQ ID NO: 2) were designed for the bisulfite-converted DNA sequences, using previously published sequences. 5 PCR amplification was performed with HotStar Taq (Qiagen, Hilden, Germany). Amplicons were cloned into pCR4-TOPO vector with the TOPO TA cloning kit for sequencing (Life Technologies, Carlsbad, CA). Miniprep was performed on each positive clone using ZR Plasmid Miniprep kit (Zymo Research, Irvine, CA). Sanger sequencing was done by Genewiz (South Plainfield, NJ, USA) using M13R primers. The DNA methylation status of all CpG sites was analyzed using Benchling Molecular Biology 2.0 Software (Benchling, San Francisco, CA). The bisulfite sequencing analysis of the Kcc2 DNA was performed only in G2 male progeny of con-M*con-F and sevo-M*sevo-F matings.

[2] = system: Sprague-Dawley rats; assay: Morris water maze (MWM) test
Excerpt: (§1) Sixty-four G1 rats (32 control and 32 sevoflurane exposed) and 122 G2 rats, which were not exposed to sevoflurane anesthesia and were subjected to animal facility rearing only, were studied. The G1 rats were sequentially evaluated in the EPM starting on ~P125, PPI of the acoustic startle response on ~P135 and MWM starting ~on P145 (FIG. 1). One half of these animals were sacrificed on ≥P160 to collect trunk blood, brain and testis and ovarian tissues for further analyses. The rest of these animals were physically restrained for 30 min on ≥P160 to measure corticosterone responses, followed by collection of tissue samples (as above) for further analyses. The G2 rats were evaluated in the EPM starting on P60 and PPI of startle on P70 (FIG. 1). One half of these animals were sacrificed on ≥P95 to collect trunk blood and brain tissue samples for further analyses, and the rest of these animals were tested for the corticosterone responses to physical restraint for 30 min on ≥P95 before collecting the trunk blood and brain tissue samples.
The MWM tests were run using a MWM apparatus and data were analyzed using a computer-based video tracking system (Water 2020; HVS Image) as previously described. 5

[3] = system: Sprague-Dawley rats; assay: Prepulse inhibition (PPI) of startle; settings: for startle amplitudes: all experimental groups; for PPI of startle at PP3: vs offspring of unexposed parents
Excerpt: as §1
The PPI of startle tests were performed using a SR-Lab startle apparatus (San Diego Instruments, San Diego, CA) as previously described.^5-7 The % PPI for each prepulse level was calculated using the following formula: % PPI=100×[(pulse alone)−(prepulse+pulse)]/pulse alone. Data were collected as Vmax amplitude.

[4] = system: Crh, Grs, Erα, Erβ, aromatase, Gnrh, Nkcc1 and Kcc2 mRNA; assay: qRT-PCR of mRNA levels in hypothalamus and hippocampus
Experimental: Levels of mRNA for Nkcc1 and Kcc2 in the hypothalamus and hippocampus, for Crh, Erα, Erβ, aromatase, GnRH in the hypothalamus, and for Grs in the hippocampus were analyzed via reverse transcription-PCR (qRT-PCR) in a StepOnePlus™ Real-Time PCR System (Applied Biosystems, Foster City, CA) as previously described. 5 RNA was extracted from the samples using an RNeasy Plus Kit (Qiagen, Valencia, CA), reverse transcribed with a high-capacity cDNA reverse transcription kit (Bio-Rad Laboratories, Hercules, CA), and then analyzed via qRT-PCR. Taqman probes specific for the above genes were obtained from Applied Biosystems (Carlsbad, CA): Crh (Rn01462137_m1), Gr (Rn00561369_m1), Erα (Rn01430446_m1), Erβ (Rn00562610_m1), aromatase (Rn00567222_m1), Gnrh (Rn00562754_m1), Nkcc1 (Rn00582505_m1) and Kcc2 (Rn00592624_m1). Data were normalized to glyceraldehyde-3-phosphate dehydrogenase (Gapdh) mRNA (Rn01775763_g1). Gene expression was calculated using the ΔΔCT method and data are presented as relative fold change from that of control animals.

[5] = G2 female rats, parental sevoflurane exposure
[6] = G1 female rats, control vs sevoflurane-exposed
[7] = G1 female rats, more than 3 months after exposure
[8] = G1 male rats, more than 3 months after exposure
[9] = G2 females, parental sevoflurane exposures
[10] = G2 males, all four treatment groups

**Q.** For FCOC(C(F)(F)F)C(F)(F)F [sevoflurane, 1,1,1,3,3,3-hexafluoro-2-(fluoromethoxy)propane], which “DNA methylation in the Kcc2 gene promoter” value (“DNA methylation” below) ([1]; hippocampus of G2 male progeny of both exposed parents, CpG site 1) is on record?
**A.** The value was “increased DNA methylation”.

**Q.** What about the “DNA methylation” value ([1]; hippocampus of G2 male progeny of both exposed parents, CpG site 2) of the same compound?
**A.** The value was “increased DNA methylation”.

**Q.** What about the “DNA methylation” value ([1]; hippocampus of G2 male progeny of both exposed parents, CpG site 3) of the same compound?
**A.** Its value is “increased DNA methylation”.

**Q.** And the “DNA methylation” value ([1]; hypothalamus of G2 male progeny of both exposed parents, CpG site 1)?
**A.** The value was “increased DNA methylation”.

**Q.** And the “DNA methylation” value ([1]; hypothalamus of G2 male progeny of both exposed parents, CpG site 2)?
**A.** The value was “increased DNA methylation”.

**Q.** What about the “DNA methylation” value ([1]; hypothalamus of G2 male progeny of both exposed parents, CpG site 3) of the same compound?
**A.** Its value is “increased DNA methylation”.

**Q.** And the “methylation of CpG sites in the Kcc2 gene promoter” value (from here on “methylation of CpG sites”) ([1]; ovarian tissue of G1 female rats, CpG site 1)?
**A.** The value was “increased methylation”.

**Q.** What about the “methylation of CpG sites” value ([1]; ovarian tissue of G1 female rats, CpG site 2) of the same compound?
**A.** The value was “increased methylation”.

**Q.** And the “methylation of CpG sites” value ([1]; sperm of G1 male rats, CpG site 1)?
**A.** The value was “increased methylation”.

**Q.** What about the “methylation of CpG sites” value ([1]; sperm of G1 male rats, CpG site 2) of the same compound?
**A.** Its value is “increased methylation”.

**Q.** What about the MWM tests ([2]; G1 female rats) of the same compound?
**A.** Its MWM tests is “no significant group effects”.

**Q.** And the MWM escape latencies ([2]; G1 male rats, 5-day training period)?
**A.** Its MWM escape latencies is “no significant between-subjects effect”.

**Q.** What about the “crossings over the escape platform location, MWM” value ([2]; G1 male rats, probe test) of the same compound?
**A.** The value was “fewer crossings”.

**Q.** And the “time in the target quadrant of the MWM” value ([2]; G1 male rats, probe test)?
**A.** The value was “significantly less time”.

**Q.** What about the “PPI of startle responses” value ([3]; G1 male rats, prepulse intensity of 3 dB, vs control) of the same compound?
**A.** The value was “impaired PPI of startle responses”.

**Q.** And the startle amplitudes ([3]; G2 female rats)?
**A.** Its startle amplitudes is “similar”.

**Q.** And the PPI of startle [3, 5]?
**A.** Its PPI of startle is “no significant treatment effect”.

**Q.** And the startle amplitudes ([3]; G2 male rats)?
**A.** The startle amplitudes was “similar”.

**Q.** What about the “PPI of startle at PP3” value ([3]; G2 males of both exposed parents) of the same compound?
**A.** Its value is “reduced PPI of startle”.

**Q.** What about the “PPI of startle at PP3” value ([3]; G2 males of control fathers and exposed mothers) of the same compound?
**A.** Its value is “reduced PPI of startle”.

**Q.** What about the “hippocampal Kcc2 mRNA levels” value [4, 6] of the same compound?
**A.** The value was “similar”.

**Q.** And the “hippocampal Nkcc1 mRNA levels” value [4, 6]?
**A.** Its value is “similar”.

**Q.** What about the “Kcc2 mRNA levels in the hypothalamus” value [4, 7] of the same compound?
**A.** The value was “unaltered”.

**Q.** And the “Nkcc1 mRNA levels in the hypothalamus” value [4, 7]?
**A.** Its value is “unaltered”.

**Q.** What about the “hippocampal Gr mRNA levels” value ([4]; G1 female rats, vs control) of the same compound?
**A.** The value was “Neither hypothalamic Crh mRNA levels (FIG. 4C) nor hippocampal GrmRNA levels (FIG. 4D) were different”.

**Q.** And the “hypothalamic Crh mRNA levels” value ([4]; G1 female rats, vs control)?
**A.** The value was “Neither hypothalamic Crh mRNA levels (FIG. 4C) nor hippocampal GrmRNA levels (FIG. 4D) were different”.

**Q.** And the “hypothalamic levels of Erα mRNA” value ([4]; G1 female rats, vs control)?
**A.** Its value is “not different”.

**Q.** What about the “hypothalamic levels of Erβ mRNA” value ([4]; G1 female rats, vs control) of the same compound?
**A.** The value was “slightly, though significantly increased”.

**Q.** And the “hypothalamic levels of Gnrh mRNA” value ([4]; G1 female rats, vs control)?
**A.** Its value is “no significant treatment effects”.

**Q.** What about the “increase in hypothalamic aromatase mRNA” value ([4]; G1 female rats, vs control) of the same compound?
**A.** Its value is “did not achieve statistical significance”.

**Q.** What about the “hypothalamic Crh mRNA levels” value ([4]; G1 male rats, 2 hours after the restraint, vs control) of the same compound?
**A.** Its value is “increased”.

**Q.** And the “Kcc2 mRNA levels in the hippocampus” value [4, 8]?
**A.** The value was “significantly reduced”.

**Q.** What about the “Kcc2 mRNA levels in the hypothalamus” value [4, 8] of the same compound?
**A.** The value was “decreased”.

**Q.** And the “Nkcc1 mRNA levels in the hippocampus” value [4, 8]?
**A.** Its value is “but not Nkcc1 mRNA levels”.

**Q.** What about the “Nkcc1 mRNA levels in the hypothalamus” value [4, 8] of the same compound?
**A.** Its value is “normal”.

**Q.** And the “Gr mRNA in the hippocampus” value ([4]; G1 male rats, vs control)?
**A.** Its value is “reduced”.

**Q.** What about the “hypothalamic levels of Era mRNA” value ([4]; G1 male rats, vs control) of the same compound?
**A.** Its value is “increased”.

**Q.** What about the “hypothalamic levels of Erβ mRNA” value ([4]; G1 male rats, vs control) of the same compound?
**A.** The value was “decreased”.

**Q.** And the “hypothalamic levels of Gnrh mRNA” value ([4]; G1 male rats, vs control)?
**A.** Its value is “increased”.

**Q.** And the “hypothalamic levels of aromatase mRNA” value ([4]; G1 male rats, vs control)?
**A.** The value was “significantly increased”.

**Q.** And the “hippocampal Gr mRNA levels” value [4, 5]?
**A.** Its value is “no significant between-subjects effects”.

**Q.** What about the “hypothalamic Crh mRNA” value [4, 5] of the same compound?
**A.** The value was “no significant between-subjects effects”.

**Q.** What about the “Kcc2 mRNA level in the hippocampus” value [4, 9] of the same compound?
**A.** Its value is “not significant”.

**Q.** What about the “Kcc2 mRNA levels in the hypothalamus” value [4, 9] of the same compound?
**A.** Its value is “not significant”.

**Q.** What about the “Nkcc1 mRNA level in the hippocampus” value [4, 9] of the same compound?
**A.** Its value is “not significant”.

**Q.** And the “Nkcc1 mRNA levels in the hypothalamus” value [4, 9]?
**A.** The value was “not significant”.

**Q.** And the “hippocampal Kcc2 mRNA levels” value ([4]; G2 male offspring of both exposed parents)?
**A.** Its value is “reduced”.

**Q.** And the “hippocampal Kcc2 mRNA levels” value ([4]; G2 male offspring of exposed fathers and control mothers)?
**A.** The value was “reduced”.

**Q.** What about the “hypothalamic Kcc2 mRNA levels” value ([4]; G2 male progeny of sevoflurane exposed fathers and mothers, vs offspring of control parents) of the same compound?
**A.** The value was “lower levels”.

**Q.** What about the “Crh mRNA in the hypothalamus” value [4, 10] of the same compound?
**A.** The value was “not different”.

**Q.** And the “Gr mRNA levels in the hippocampus” value [4, 10]?
**A.** Its value is “not different”.

**Q.** And the “Nkcc1 mRNA levels in the hippocampus” value ([4]; G2 males, parental sevoflurane exposure)?
**A.** Its value is “no significant effects”.
